{
  "source": "patent US7064139B2",
  "about": "“Method for treating retroviral infections” (Uniroyal Chemical Company, Inc., priority 2001, dated 2006)",
  "key": {"Davis strain CMV": {"test_system": "Davis strain CMV", "test": "Reduction of CMV-induced cytopathicity in HEL cells", "assay_type": "cell-based, human cytomegalovirus (HCMV)", "conditions": "Human betaherpesvirus 5, 168 h; HEL cells, virus-induced cytopathicity after seven days; read-out: Antiviral EC50 (ug/ml) Davis strain CMV", "procedure,_shortened": "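Confluent HEL cells were infected with 100 PFU/well CMV for 1–2 h, then washed and kept in MEM with 2% FCS and test compound. EC50 is the concentration cutting virus-induced cytopathicity by 50% versus untreated control at day 7. Where cytotoxicity interfered, percent protection at the stated concentration is given.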"}, "HIV-2 (ROD)": {"test_system": "HIV-2 (ROD)", "test": "Inhibition of HIV-2 syncytium formation in CEM cells", "assay_type": "cell-based", "conditions": "for EC50: Human immunodeficiency virus 2, CCRF-CEM, CEM cells, syncytium formation, day four post infection, read-out: EC50 (ug/ml) HIV-2; for HIV-2 % Protection: protection of CEM cells against virus-induced cytopathicity at the concentration in the previous column", "procedure,_shortened": "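Human T-lymphoblast CEM cells, suspended at roughly 300,000 cells per ml of culture medium, were infected with about 100 CCID50 of HIV-2 (ROD). Aliquots of 100 μl of infected cells were placed in 200 μl microtiter wells holding 100 μl of serial 5-fold compound dilutions, and syncytium formation was scored microscopically four days after infection.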"}, "HIV-1 (IIIB)": {"test_system": "HIV-1 (IIIB)", "test": "microbe, parasite or virus in culture", "assay_type": "cell-based", "conditions": "for EC50: Human immunodeficiency virus 1, IIIB, CCRF-CEM, CEM cells, syncytium formation, day four post infection, read-out: EC50 (ug/ml) HIV-1", "procedure,_shortened": "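Human T-lymphoblast CEM cells at roughly 300,000 cells per ml were infected with about 100 CCID50 of HIV-1 (IIIB). Then 100 μl of the infected suspension went into 200 μl microtiter wells holding 100 μl of 5-fold serial compound dilutions. Inhibition of syncytium formation was scored microscopically on day four post infection, and protection against virus-induced cytopathicity was recorded.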"}},
  "data": [
    {"smiles": "Cc1ccc(C)c(C(Cl)S(=O)(=O)c2cc(C)cc[n+]2[O-])c1", "note": "(stereo not drawn) [Compound 74, 2-[(2,5-dimethylphenyl)chloromethylsulfonyl]-4-methylpyridine-1-oxide]", "values": [
      {"measurement": "EC50", "setting": "Davis strain CMV", "result": 34.5, "unit": "µg/mL"},
      {"measurement": "EC50", "setting": "HIV-2 (ROD)", "result": "> 100", "unit": "µg/mL"},
      {"measurement": "HIV-2 % Protection", "setting": "HIV-2 (ROD)", "result": 0.0, "unit": "%"},
      {"measurement": "EC50", "setting": "HIV-1 (IIIB)", "result": 0.42, "unit": "µg/mL"}
    ]},
    {"smiles": "O=S(=O)(Cc1c2ccccc2cc2ccccc12)c1cccc[n+]1[O-]", "note": "[Compound 51, 2[1(9-anthryl)methylsulfonyl]pyridine-N-oxide]", "values": [
      {"measurement": "EC50", "setting": "Davis strain CMV", "result": 1.3, "unit": "µg/mL"},
      {"measurement": "EC50", "setting": "HIV-2 (ROD)", "result": "> 0.8", "unit": "µg/mL"},
      {"measurement": "HIV-2 % Protection", "setting": "HIV-2 (ROD)", "result": 0.0, "unit": "%"},
      {"measurement": "EC50", "setting": "HIV-1 (IIIB)", "result": "> 0.8", "unit": "µg/mL"},
      {"measurement": "HIV-1 % Protection", "setting": "HIV-1 (IIIB); protection of CEM cells against virus-induced cytopathicity at the concentration in the previous column", "result": 0.0, "unit": "%"}
    ]}
  ]
}
